In BindingDB's records for doi:10.1021/ml400235c (Korea Research Institute of Technology, 2013):

Assays:
[1] = Antagonist activity at PAR1 in human platelet rich plasma assessed as inhibition of haTRAP-induced platelet aggregation preincubated for 1 hr followed by haTRAP addition measured for 10 mins by spectrophotometric analysis
[2] = Antagonist activity at PAR1 in washed human platelets assessed as inhibition of haTRAP-induced platelet aggregation preincubated for 1 hr followed by haTRAP addition measured for 10 mins by spectrophotometric analysis

## CC1(OC(N)=O)C[C@@H]2CCCC[C@@H]2[C@H]1C=Cc1ccc(-c2cccc(F)c2)cn1 (stereo not given in full)
[1]
  IC50: 100 nM
[2]
  IC50: 2.9 nM

## CC(=O)N(C)C1C[C@@H]2CCCC[C@@H]2[C@H]1/C=C/c1ccc(-c2cccc(F)c2)cn1 (stereo not given in full)
[1]
  IC50: 8900 nM
[2]
  IC50: 210 nM

## CS(=O)(=O)NC1C[C@@H]2CCCC[C@@H]2[C@H]1/C=C/c1ccc(-c2cccc(F)c2)cn1 (stereo not given in full)
[1]
  IC50: 3900 nM
[2]
  IC50: 140 nM

## O=C1NCC2(C[C@@H]3CCCC[C@@H]3[C@H]2C=Cc2ccc(-c3cccc(F)c3)cn2)O1 (stereo not given in full)
[1]
  IC50: 210 nM
[2]
  IC50: 7.2 nM

## CN(C1C[C@@H]2CCCC[C@@H]2[C@H]1/C=C/c1ccc(-c2cccc(F)c2)cn1)S(C)(=O)=O (stereo not given in full)
[1]
  IC50: 97 nM
[2]
  IC50: 2.2 nM

## Fc1cccc(-c2ccc(/C=C/[C@@H]3[C@H]4CCCC[C@H]4CC34OCCO4)nc2)c1
[1]
  IC50: 4100 nM
[2]
  IC50: 410 nM

## CS(=O)(=O)OC1C[C@@H]2CCCC[C@@H]2[C@H]1/C=C/c1ccc(-c2cccc(F)c2)cn1 (stereo not given in full)
[2]
  IC50: 6 nM

## CCOC(=O)N[C@@H]1CC[C@@H]2[C@@H](C1)C[C@H]1C(=O)O[C@H](C)[C@H]1[C@H]2C=Cc1ccc(-c2cccc(F)c2)cn1 [Ethyl [(3aR,4aR,8aR,9aS)-9(S)-[(E)-2-[5-(3-fluorophenyl)-2-pyridinyl]ethenyl]dodecahydro-1(R)-methyl-3-oxonaphtho[2,3-c]furan-6(R)-yl]carbamate]
[1]
  IC50: 120 nM
[2]
  IC50: 1.5 nM
